Reference: PubChem BioAssay (NCI)
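Five compound concentrations were applied to cells in 96-well plates for 48 hours; endpoints were derived by simple linear interpolation of the resulting dose-response curve. TGI denotes the concentration required for complete inhibition of growth.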

Key:
Experiment in all cases: NCI tumour cell line growth inhibition, 48 h
[1] = system: SF-295 CNS
[2] = system: IGROV1 ovarian
[3] = system: SK-MEL-5 melanoma
[4] = system: SNB-75 CNS
[5] = system: COLO 205 colon
[6] = system: CCRF-CEM leukemia
[7] = system: XF 498 CNS
[8] = system: CAKI-1 renal
[9] = system: SNB-78 CNS
[10] = system: SK-OV-3 ovarian
[11] = system: ACHN renal
[12] = system: HL-60(TB) leukemia
[13] = system: KM20L2 colon
[14] = system: OVCAR-5 ovarian
[15] = system: K-562 leukemia
[16] = system: UACC-257 melanoma
[17] = system: MALME-3M melanoma
[18] = system: M19-MEL melanoma
[19] = system: SNB-19 CNS
[20] = system: DMS 114 small cell lung
[21] = system: NCI-H460 lung
[22] = system: NCI-H23 lung
[23] = system: A498 renal
[24] = system: DMS 273 small cell lung
[25] = system: LXFL 529 NSCLC
[26] = system: U251 CNS
[27] = system: SK-MEL-2 melanoma
[28] = system: SW-620 colon
[29] = system: SF-268 CNS
[30] = system: KM12 colon
[31] = system: OVCAR-4 ovarian
[32] = system: HOP-92 NSCLC
[33] = system: 786-0 renal
[34] = system: SN12C renal
[35] = system: HCT-15 colon
[36] = system: HOP-18 NSCLC
[37] = system: NCI-H522 lung
[38] = system: OVCAR-3 ovarian
[39] = system: UO-31 renal
[40] = system: HT29 colon
[41] = system: SK-MEL-28 melanoma
[42] = system: HCT-116 colon
[43] = system: MOLT-4 leukemia
[44] = system: EKVX NSCLC
[45] = system: RPMI-8226 leukemia
[46] = system: UACC-62 melanoma
[47] = system: OVCAR-8 ovarian
[48] = system: DLD-1 colon
[49] = system: LOX IMVI melanoma
[50] = system: TK-10 renal
[51] = system: SF-539 CNS
[52] = system: HOP-62 NSCLC
[53] = system: M14 melanoma
[54] = system: HCC-2998 colon
[55] = system: NCI-H226 lung
[56] = system: RXF 393 renal
[57] = system: A549 NSCLC
[58] = system: SR leukemia

CC(C)N1CN(C(C(=O)N[C@@H]2C(=O)N3C2SC(C)(C)C3C(=O)O)c2ccc(O)cc2)CSC1=S (stereo partly specified)
TGI [1]: > 100 µM | TGI [2]: > 100 µM | TGI [3]: > 100 µM | TGI [4]: > 100 µM | TGI [5]: > 100 µM | TGI [6]: > 100 µM | TGI [7]: > 100 µM | TGI [8]: > 100 µM | TGI [9]: > 100 µM | TGI [10]: > 100 µM | TGI [11]: > 100 µM | TGI [12]: > 100 µM | TGI [13]: > 100 µM | TGI [14]: > 100 µM | TGI [15]: > 100 µM | TGI [16]: > 100 µM | TGI [17]: > 100 µM | TGI [18]: > 100 µM | TGI [19]: > 100 µM | TGI [20]: > 100 µM | TGI [21]: > 100 µM | TGI [22]: > 100 µM | TGI [23]: > 100 µM | TGI [24]: > 100 µM | TGI [25]: > 100 µM | TGI [26]: > 100 µM | TGI [27]: > 100 µM | TGI [28]: 36.9 µM | TGI [29]: > 100 µM | TGI [30]: > 100 µM | TGI [31]: > 100 µM | TGI [32]: > 100 µM | TGI [33]: > 100 µM | TGI [34]: > 100 µM | TGI [35]: > 100 µM | TGI [36]: > 100 µM | TGI [37]: > 100 µM | TGI [38]: > 100 µM | TGI [39]: > 100 µM | TGI [40]: > 100 µM | TGI [41]: > 100 µM | TGI [42]: > 100 µM | TGI [43]: > 100 µM | TGI [44]: > 100 µM | TGI [45]: > 100 µM | TGI [46]: > 100 µM | TGI [47]: > 100 µM | TGI [48]: > 100 µM | TGI [49]: > 100 µM | TGI [50]: > 100 µM | TGI [51]: > 100 µM | TGI [52]: > 100 µM | TGI [53]: > 100 µM

CCOC(=O)c1ccc(NC(=O)SCCC(=O)O)cc1
TGI [1]: > 100 µM | TGI [2]: > 100 µM | TGI [4]: 23.1 µM | TGI [5]: > 100 µM | TGI [6]: > 100 µM | TGI [54]: > 100 µM | TGI [9]: > 100 µM | TGI [11]: > 100 µM | TGI [55]: > 100 µM | TGI [12]: > 100 µM | TGI [13]: > 100 µM | TGI [14]: > 100 µM | TGI [15]: > 100 µM | TGI [16]: > 100 µM | TGI [19]: > 100 µM | TGI [20]: > 100 µM | TGI [56]: > 100 µM | TGI [21]: > 100 µM | TGI [22]: > 100 µM | TGI [23]: > 100 µM | TGI [24]: > 100 µM | TGI [25]: > 100 µM | TGI [57]: > 100 µM | TGI [26]: > 100 µM | TGI [27]: > 100 µM | TGI [28]: > 100 µM | TGI [29]: 54 µM | TGI [30]: > 100 µM | TGI [33]: > 100 µM | TGI [34]: > 100 µM | TGI [35]: > 100 µM | TGI [38]: > 100 µM | TGI [39]: > 100 µM | TGI [40]: > 100 µM | TGI [41]: > 100 µM | TGI [42]: > 100 µM | TGI [43]: > 100 µM | TGI [44]: > 100 µM | TGI [45]: > 100 µM | TGI [46]: > 100 µM | TGI [47]: > 100 µM | TGI [48]: > 100 µM | TGI [49]: > 100 µM | TGI [58]: > 100 µM | TGI [50]: > 100 µM | TGI [51]: > 100 µM | TGI [52]: > 100 µM | TGI [53]: > 100 µM
